Results reported in patent US20260209152A1, “Substituted Hydroxystilbene Compounds and Derivatives, Synthesis and Uses Thereof” (Kynan Duke IP, LLC, priority 2019, published 2026).
pIC50: −log10 of the molar value. Entries after “also recorded” stand apart in the source; their conditions may differ. Where two headings read alike, the source gives them in different places. Values belong to the compound of their own block, whether it stands above or below them.

Legend:
[1] = test system: Cancer cells including pancreatic, bladder, kidney, colon, breast, lung, liver and osteosarcomas; experiment: CellTiter Glo cell viability assay, panel of cancer cell lines; format: cell-based, human; conditions: for Cancer cell viability inhibition, statement in words: SAR discussion based on IC50 values in Tables 1 to 5, compared with 1 [KYN-001]; for Fold reduction in cancer cell viability inhibition vs 1 [KYN-001]: cell lines tested
Method: Compounds 1 to 15 were evaluated and their effect on cancer growth examined in cell viability assays on multiple cancer types (Tables 1 to 5). Cancer cells including pancreatic, bladder, kidney, colon, breast, lung, liver and osteosarcomas obtained from ATCC (American Type Culture Collection) were authenticated before use by Short Tandem Repeat genomic analysis (Reid Y, Storts D, Riss T and Minor L. Authentication of Human Cell Lines by STR DNA Profiling Analysis. 2013 May 1. In: Markossian S, Sittampalam G S, Grossman A, et al., editors. Assay Guidance Manual. Bethesda (MD): Eli Lilly & Company and the National Center for Advancing Translational Sciences; 2004.). Experimental protocol for each cancer cell line was verified and optimized according to literature reports before use (Tables 1 to 3).
(§1) 1.7*10^3 cells/well were seeded in quadruplicates in 96-well plate after plating. Drugs were added at 5 μM and 2-fold dilutions over 18 concentrations (0.000038146-5 M concentration range) to generate a dose-response curve. Cell growth was assessed on day 1, 3 and 5 after drug treatments using the CellTiter Glo Luminescence Cell Viability Assay (Promega) according to manufacturer's protocol. Thermo Scientific Varioskan LUX Multimode Microplate instrument was used for plate reading. Data are expressed as mean luminescence (arbitrary units) ±S.D.
(§2) Cell Viability Assays were employed to determine the concentration of Compound 1 (KYN-001) and analogues where the response is reduced by half. For each treatment of cancer cells, 1, 2, 5, 10 and 20 μM solutions of compounds were applied. GraphPad Prism 7 software was used to fit dose response curves. Relative Luminescence Units were plotted against the log values of the doses used and the nonlinear regression model was used for data analysis.
(§3) The protocol for cell proliferation was optimized for Compound 8 (KYN-119) to enable a more accurate assessment of its low IC50 value. In this protocol, 18 dosages (2 fold dilutions ranging from 0.000038146 to 5 μM) were applied to cells seeded in 96-well plates, and Luminescence was measured after 1, 3 and 5 days upon treatments.

[2] = test system: Kidney A-498; experiment: CellTiter Glo cell viability assay; format: cell-based, human
Method: as §1, with “Drugs were added at 5 μM and 2-fold dilutions over 18 concentrations (0.000038146-5 M concentration range) to generate a dose-response curve.” left out
as §2, with “For each treatment of cancer cells, 1, 2, 5, 10 and 20 μM solutions of compounds were applied.” left out
The protocol for cell proliferation was optimized for Compound 8 (KYN-119) to enable a more accurate assessment of its low IC50 value. […]

[3] = test system: Kidney ACHN; experiment: CellTiter Glo cell viability assay; format: cell-based, human; conditions: Homo sapiens, ACHN, read-out: IC50
Method: as §1, §2, §3

[4] = test system: Bladder RT-112; experiment: CellTiter Glo cell viability assay; format: cell-based, human; conditions: Homo sapiens
Method: as §1, §2, §3

[5] = test system: Pancreatic MIA PaCa-2; experiment: CellTiter Glo cell viability assay; format: cell-based, human
Method: as §1, §2, §3
Day 3 upon treatment of MIA PaCa_2 pancreatic cancer cells, 24 h after plating (11 dilutions), as assessed by CellTiter Glow Assay.

[6] = test system: Pancreatic CAPAN-1; experiment: CellTiter Glo cell viability assay; format: cell-based, human; conditions: Homo sapiens, CAPAN-1, 72 h; Table 4: 3 Days of treatment; 18 2-fold dilutions 5-0.00003 μM; Average (1, 8) or single Exp A-D; read-out: IC50
Method: as §1, §2, §3

[7] = test system: Lung NCI-H1299; experiment: CellTiter Glo cell viability assay; format: cell-based, human; conditions: Homo sapiens, NCI-H1299, 72 h
Method: as §1, §2, §3

[8] = test system: Kidney CRL-1611; experiment: CellTiter Glo cell viability assay; format: cell-based; conditions: Homo sapiens, 72 h; Day 3 upon drug treatment; 10 dosages 0.0001-20 μM; read-out: IC50
Method: as §1, §2, §3

[9] = test system: Colon SW_480; experiment: CellTiter Glo cell viability assay; format: cell-based, human; conditions: Homo sapiens, SW480, 72 h; Day 3 upon drug treatment; 10 dosages 0.0001-20 μM; read-out: IC50
[10] = test system: Breast MDA-MB-231; experiment: CellTiter Glo cell viability assay; format: cell-based, human; conditions: Homo sapiens, read-out: IC50
Method: as §1, §2, §3

[11] = test system: Bladder 5637; experiment: CellTiter Glo cell viability assay; format: cell-based, human; conditions: Homo sapiens, 120 h; Day 5 upon drug treatment; 10 dosages 0.0001-20 μM (Compound 8: 18 dosages 0.000038146 to 5 μM); read-out: IC50
Method: as §1, §2, §3

[12] = test system: Colon HCT_116; experiment: CellTiter Glo cell viability assay; format: cell-based, human; conditions: Homo sapiens, HCT-116, 120 h; Day 5 upon drug treatment; 10 dosages 0.0001-20 μM (Compound 8: 18 dosages 0.000038146 to 5 μM); read-out: IC50
Method: as §1, §2, §3

[13] = Homo sapiens, A498, 72 h, Table 4: 3 Days of treatment, 18 2-fold dilutions 5-0.00003 μM, Average (1, 8) or single Exp A-D, read-out: IC50
[14] = Homo sapiens, A498, Table 5A: 11 dilutions 3-0.00001 μM, single experiments Exp E-K, read-out: IC50
[15] = Table 5A: 11 dilutions 3-0.00001 μM, single experiments Exp E-K, read-out: IC50
[16] = 72 h, Table 4: 3 Days of treatment, 18 2-fold dilutions 5-0.00003 μM, Average (1, 8) or single Exp A-D
[17] = RT-112, 72 h, Table 4: 3 Days of treatment, 18 2-fold dilutions 5-0.00003 μM, Average (1, 8) or single Exp A-D, read-out: IC50
[18] = Homo sapiens, MIA PaCa-2, Table 5A: 11 dilutions 3-0.00001 μM, single experiments Exp E-K, read-out: IC50
[19] = RT-112, 72 h, Day 3 upon drug treatment, 10 dosages 0.0001-20 μM, read-out: IC50
[20] = Homo sapiens, MIA PaCa-2, 72 h, Day 3 upon drug treatment, 10 dosages 0.0001-20 μM, read-out: IC50
[21] = MDA-MB-231, 72 h, Day 3 upon drug treatment, 10 dosages 0.0001-20 μM
[22] = MDA-MB-231, 120 h, Day 5 upon drug treatment, 10 dosages 0.0001-20 μM (Compound 8: 18 dosages 0.000038146 to 5 μM)
[23] = 120 h, Day 5 upon drug treatment, 10 dosages 0.0001-20 μM (Compound 8: 18 dosages 0.000038146 to 5 μM)
[24] = RT-112, 120 h, Day 5 upon drug treatment, 10 dosages 0.0001-20 μM (Compound 8: 18 dosages 0.000038146 to 5 μM), read-out: IC50
[25] = Homo sapiens, MIA PaCa-2, 120 h, Day 5 upon drug treatment, 10 dosages 0.0001-20 μM (Compound 8: 18 dosages 0.000038146 to 5 μM), read-out: IC50

SMILES: COc1cc(C=Cc2cc(O)cc(OC(C)C)c2CC=C(C)C)ccc1O [Compound 10, 3-(4-Hydroxy-3-methoxystyryl)-5-isopropoxy-4-(3-methylbut-2-en-1-yl)phenol]
pIC50 [2, 13]: 7.43
pIC50 [2, 14]: 6.00 to 7.00
pIC50 [2, 15]: 6.90
pIC50 [6]: 5.65
pIC50 [3, 16]: 7.39
pIC50 [4, 17]: 7.59

SMILES: CCOc1cc(C=Cc2cc(O)cc(OC)c2CC=C(C)C)ccc1O [Compound 12, 3-(3-Ethoxy-4-hydroxystyryl)-5-methoxy-4-(3-methylbut-2-en-1-yl)phenol]
Fold reduction in cancer cell viability inhibition vs 1 [KYN-001] [1]: approximately 10
pIC50 ([2]; Homo sapiens, A498, 72 h, Table 4: 3 Days of treatment, 18 2-fold dilutions 5-0.00003 μM, Average (1, 8) or single Exp A-D): 6.09
pIC50 [7]: 6.08
pIC50 ([4]; RT-112, 72 h): 6.46
pIC50 ([5]; Homo sapiens, MIA PaCa-2): 5.96

SMILES: CCc1cc(/C=C/c2cc(O)cc(OC)c2CC=C(C)C)ccc1O [Compound 13, (E)-3-(3-Ethyl-4-hydroxystyryl)-5-methoxy-4-(3-methylbut-2-en-1-yl)phenol]
pIC50 [8]: 5.67
pIC50 [4, 19]: 6.02
pIC50 [9]: 4.58
pIC50 [5, 20]: 5.52

SMILES: COc1cc(/C=C/c2cc(O)cc(OC)c2CC=C(C)C)ccc1[N+](=O)[O-] [Compound 22, (E)-3-Methoxy-5-(3-methoxy-4-nitrostyryl)-4-(3-methylbut-2-en-1-yl)phenol]
Cancer cell viability inhibition, statement in words [1]: Loss of the anti-proliferative effect
pIC50 [10, 22]: 5.21

SMILES: COc1cc(/C=C/c2cc(O)cc(OC)c2CC=C(C)C)ccc1N [Compound 23, (E)-3-(4-Amino-3-methoxystyryl)-5-methoxy-4-(3-methylbut-2-en-1-yl)phenol]
Cancer cell viability inhibition, statement in words [1]: marginally less potent than the parent compound 1; also recorded: activity similar to but overall reduced
pIC50 [10, 22]: 6.86
pIC50 [11]: 7.19
pIC50 [3, 23]: 6.59
pIC50 [12]: 6.32
pIC50 [4, 24]: 7.17
pIC50 [5, 25]: 6.74

SMILES: COc1cc(/C=C/c2cc(O)cc(OC)c2CC=C(C)C)ccc1NC(C)=O [Compound 29, (E)-N-(4-(5-hydroxy-3-methoxy-2-(3-methylbut-2-en-1-yl)styryl)-2-methoxyphenyl)acetamide]
Cancer cell viability inhibition, statement in words [1]: marginally less potent than the parent compound 1
pIC50 [10, 22]: 6.81
pIC50 [11]: 7.17
pIC50 [3, 23]: 6.55
pIC50 [12]: 6.20
pIC50 [4, 24]: 7.12
pIC50 [5, 25]: 6.73

Further lines, with some results ahead:

pIC50 [3, 16]: 6.22
pIC50 [5, 18]: 6.00 to 7.00
pIC50 [5, 15]: 6.94
SMILES: CCCOc1cc(O)cc(/C=C/c2ccc(O)c(OC)c2)c1CC=C(C)C [Compound 9, (E)-3-(4-hydroxy-3-methoxystyryl)-4-(3-methylbut-2-en-1-yl)-5-propoxyphenol]
Cancer cell viability inhibition, statement in words [1]: comparable or weaker biological activity
pIC50 [2, 13]: 7.72
pIC50 [2, 14]: 6.00 to 7.00
pIC50 [2, 15]: 6.83
pIC50 [4, 17]: 7.66

pIC50 ([7]; Table 4: 3 Days of treatment, 18 2-fold dilutions 5-0.00003 μM, Average (1, 8) or single Exp A-D, read-out: IC50): 6.71
pIC50 ([5]; Homo sapiens, MIA PaCa-2, 72 h, Table 4: 3 Days of treatment, 18 2-fold dilutions 5-0.00003 μM, Average (1, 8) or single Exp A-D, read-out: IC50): 6.18
SMILES: COc1cc(/C=C/c2cc(O)cc(OC(F)(F)F)c2CC=C(C)C)ccc1O [Compound 11, (E)-3-(4-hydroxy-3-methoxystyryl)-4-(3-methylbut-2-en-1-yl)-5-(trifluoromethoxy)phenol]
pIC50 [2, 13]: 6.98
pIC50 [4, 17]: 7.41

pIC50 [10, 21]: ~4.97
pIC50 [5, 20]: 5.46
SMILES: COc1cc(O)cc(/C=C/c2ccc(O)c(SC)c2)c1CC=C(C)C [Compound 14, (E)-3-(4-Hydroxy-3-(methylthio)styryl)-5-methoxy-4-(3-methylbut-2-en-1-yl)phenol]
pIC50 [8]: 5.53
pIC50 [4, 19]: 5.88

pIC50 [10, 22]: 6.61
pIC50 [3, 23]: 6.55
pIC50 [12]: 6.45
pIC50 [5, 25]: 6.74
pIC50 [5, 18]: 5.94
SMILES: COc1cc(/C=C/c2cc(O)cc(OC)c2CC=C(C)C)cc(C)c1O [Compound 17, (E)-4-(5-Hydroxy-3-methoxy-2-(3-methylbut-2-en-1-yl)styryl)-2-methoxy-6-methylphenol]
Cancer cell viability inhibition, statement in words [1]: marginally less potent than the parent compound 1
Fold reduction in cancer cell viability inhibition vs 1 [KYN-001] [1]: approximately 3
pIC50 [2, 14]: 6.00 to 7.00
pIC50 [2, 15]: 6.85
pIC50 [11]: 6.98
pIC50 [4, 24]: 6.94

pIC50 [10, 22]: 6.77
pIC50 [3, 23]: 5.55
pIC50 [12]: 6.17
pIC50 [5, 25]: 7.01
pIC50 [5, 18]: 5.69
SMILES: COC(=O)CNc1ccc(/C=C/c2cc(O)cc(OC)c2CC=C(C)C)cc1OC [Compound 33, Methyl (E)-(4-(5-hydroxy-3-methoxy-2-(3-methylbut-2-en-1-yl)styryl)-2-methoxyphenyl)glycinate]
Cancer cell viability inhibition, statement in words [1]: marginally less potent than the parent compound 1
pIC50 [11]: 7.07
pIC50 [4, 24]: 7.02

pIC50 [10, 21]: ~4.99
pIC50 [5, 20]: 4.69
SMILES: COc1cc(/C=C/c2cc(O)cc(OC)c2Br)ccc1O [Compound 45, (E)-4-Bromo-3-(4-hydroxy-3-methoxystyryl)-5-methoxyphenol]
pIC50 [9]: 4.97
